This note sets out measurements from PubChem BioAssay (NCI).

Common to all, as to experiment: NCI-60 cell line screen, 48 h
For experiment [1], the system named is U251 CNS.
In experiment [2] the test system is SF-268 CNS.
The subject of experiment [3] is NCI-H226 lung.
In experiment [4] the test system is HCT-15 colon.
Experiment [5] deals with NCI-H460 lung.
Experiment [6] relates to RPMI-8226 leukemia.
Experiment [7] deals with MOLT-4 leukemia.
Experiment [8] deals with OVCAR-5 ovarian.
In experiment [9] the test system is UACC-62 melanoma.
Experiment [10] has as its system RXF 393 renal.

SMILES strings stand for the structures. Where “and” joins values, the source holds several entries; their conditions need not be identical. Equal entries are not always repeated.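 Tested at 5 concentrations; 48 h exposure; 96-well plates; endpoints linearly interpolated, else capped at highest concentration. GI50 = concentration required for 50% inhibition of growth. TGI denotes the concentration required for complete inhibition of growth.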

As to `COc1ccc(/C=C2/SC(Nc3nc(-c4nc(NC5=NC(=O)/C(=C\c6ccc(OC)cc6)S5)sc4C)c(C)s3)=NC2=O)cc1`, the GI50 in experiment [1] was 1300 nM; in [2] it was 2790 nM; in [3], 4.98 µM; in experiment [4], 397 nM; in experiment [5], 1400 nM; in [6] it was 572 nM. In addition, the GI50 in experiment [7] is 8870 nM; in experiment [8] it was 5180 nM; in [9], 320 nM; in experiment [10], 1530 nM. Also, the TGI in experiment [1] was 7.32 µM; in [2] it was more than 33.8 µM; in experiment [3] it was 24.9 µM; in experiment [4], 7.82 µM; in [5], more than 31.7 µM; in experiment [6], 3.21 µM. Moreover, the TGI in experiment [7] was more than 50 µM; in [8] it was 24.5 µM; in experiment [9], 6.62 µM; in experiment [10], 7.23 µM.

In the case of `CO[C@H]1CC(O[C@@H]2/C(C)=C/C[C@@H]3C[C@@H](C[C@]4(CC[C@H](C)[C@@H](C5CCCCC5)O4)O3)OC(=O)[C@@H]3C=C(C)/C(=N/O)[C@H]4OC/C(=C\C=C\[C@@H]2C)[C@]43O)O[C@@H](C)C1O` (some centres not stated), the GI50 in experiment [1] is 759 nM; in [2], 982 nM; in experiment [3] it was 0.73 µM; in experiment [4], 873 nM; in experiment [5], 793 nM; in [6] it was 944 nM. In addition, the GI50 was 1120 nM in experiment [7], 917 nM in [8], 786 nM in experiment [9] and 728 nM in [10]. The TGI was 1.47 µM in [1]; 2.45 µM in experiment [2]; 1.43 µM in experiment [3]; 1.95 µM in experiment [4]; 1.51 µM in experiment [5]; 2.72 µM in [6]. Also, the TGI was 2.53 µM in [7], 2.02 µM in experiment [8], 1.54 µM in [9] and 1.4 µM in experiment [10].

`O=C(c1ccc(Cl)cc1)C(O)c1ccc(Cl)cc1` (configuration not stated): the TGI in [1], in experiment [2], in experiment [3], in experiment [4], in experiment [5] and in experiment [6] was more than 100 µM in each case. Also, the TGI in experiment [7] is 75.6 µM; in experiment [8] it was more than 100 µM; in experiment [9], more than 100 µM; in [10] it was more than 100 µM.

On to `CCCCCCCC/C=C/CCCCCCCC1=NC(C)(C)CN1CCO`, for which the GI50 in experiment [1] was 1620 nM; in experiment [2] it was 1460 nM; in [3], 12.6 µM; in [4], 1580 nM; in experiment [5], 1850 nM; in experiment [6], 2020 nM. Also, the GI50 in experiment [7] is 1440 nM; in [8], 2730 nM; in experiment [9], 1720 nM; in experiment [10], 2020 nM. Moreover, the TGI in experiment [1] is 2.97 µM; in experiment [2] it was 2.78 µM; in experiment [3] it was 32.8 µM; in experiment [4], 3.16 µM; in experiment [5], 3.42 µM; in experiment [6], 4.31 µM. The TGI is 4.9 µM in [7], 7.98 µM in experiment [8], 3.42 µM in experiment [9] and 4.37 µM in experiment [10].

As to `CC(=O)c1cc(C(=O)c2ccc3c(c2)Sc2ccccc2N3)n2ccccc12`, the GI50 in experiment [1] was 4.92 nM and 3.32 nM; in experiment [4], 4.72 nM and 3.32 nM; in [5], 3.39 nM and 3.32 nM; in experiment [6], 5.85 nM and 3.32 nM; in experiment [7] it was 6.23 nM and 3.32 nM; in experiment [8] it was 37.6 nM and 199 nM. For the same molecule, the GI50 is 2.93 nM and 3.32 nM in [9]; 3.32 nM in experiment [10]. Further, the TGI in [1] was 16.4 µM; in experiment [2] it was more than 33.2 µM; in [3] it was more than 33.2 µM; in experiment [4] it was more than 33.2 µM; in experiment [6] it was 20.6 µM; in experiment [7] it was more than 33.2 µM. For the same molecule, the results for the TGI in experiment [8], in [9] and in experiment [10] were more than 33.2 µM, more than 33.2 µM and 20.5 µM, respectively.

As for `CCOC(=O)C(C#N)C1=CC(=O)C(=O)c2ccc(O)cc21` (configuration not stated), the TGI in [1], in experiment [2], in experiment [3], in [4], in experiment [5] and in [6] was more than 100 µM each time. The TGI in experiment [7] was more than 100 µM; in [8] it was more than 100 µM; in experiment [9] it was 36.9 µM; in experiment [10], more than 100 µM.

In the case of `CSc1nc2c(c(=O)n1C)CN(C1CCCCC1)C(=O)C(c1ccccc1)N2` (configuration not stated), the GI50 in experiment [1] was 41400 nM; in experiment [2], 25300 nM; in experiment [3], 77.3 µM; in experiment [4], 16100 nM; in [5] it was 37200 nM; in experiment [6] it was 11300 nM. The GI50 in experiment [7] was 12200 nM; in [8], more than 100000 nM; in [9], 8010 nM; in [10] it was 49500 nM. The TGI in experiment [1], in [2], in [3], in [4], in [5] and in experiment [6] was more than 100 µM in each case. Further, the TGI in [7] was 39 µM; in [8], more than 100 µM; in experiment [9] it was 57.8 µM; in experiment [10] it was more than 100 µM.

Turning to `c1ccc(CNCCN(CCNCc2ccccn2)Cc2ccc3ccccc3c2)nc1`, the GI50 in [1] is 2470 nM; in [2] it was 2890 nM; in [3], 1.77 µM; in experiment [4] it was 1160 nM; in [5], 2140 nM; in experiment [6] it was 2670 nM. Also, the GI50 in [7] was 2580 nM; in experiment [8], 1630 nM; in experiment [9], 2170 nM; in [10], 2030 nM. In addition, the TGI turned out to be 7.39 µM in experiment [1]; 12.3 µM in experiment [2]; 3.53 µM in experiment [3]; 5.01 µM in experiment [4]; 5 µM in experiment [5]; 6.65 µM in experiment [6]. Moreover, the TGI in experiment [7] came out at 7.5 µM; in [8], 4.03 µM; in experiment [9], 4.7 µM; in experiment [10], 5.17 µM.
